Experiments:
[1] = biological target: T1, Prothrombin (Homo sapiens, UniProt P00734); assay: Inhibition of human thrombin
[2] = biological target: T1, Prothrombin; assay: Binding affinity to thrombin

`N=C(N)NCCCC[C@@H](NC(=O)[C@@H](Cc1ccc(O)cc1)NC(=O)[C@@H]1CCN1C(=O)[C@H](CC1CCCCC1)NC(=O)[C@H]1CC[C@H](CNC(=N)N)CC1)C(N)=O` gave a Ki [1] of 3 nM.

For `NCCc1c[nH]c2cc(F)ccc12`, the Kd [2] was 6.9 mM.
